This note sets out measurements from patent US9545105B2, “1-(heterocyclic carbonyl) piperidines” (BAYER INTELLECTUAL PROPERTY GMBH, priority 2010, dated 2017).

The test system of one data set is Sphaerotheca fuliginea. Description: In vivo preventive test on Sphaerotheca fuliginea (cucumber). The note with it: 500 ppm of active ingredient, evaluated 7 days after inoculation. The procedure:
Solvent: 49 parts by weight of N,N-dimethylformamide Emulsifier: 1 part by weight of Alkylarylpolyglycolether To produce a suitable preparation of active compound, 1 part by weight of active compound is mixed with the stated amounts of solvent and emulsifier, and the concentrate is diluted with water to the desired concentration. To test for preventive activity, young plants are sprayed with the preparation of active compound at the stated rate of application. One day after this treatment, the plants are inoculated with an aqueous spore suspension of Sphaerotheca fuliginea. Then the plants are placed in a greenhouse at approximately 23° C. and a relative atmospheric humidity of approximately 70%. The test is evaluated 7 days after the inoculation. 0% means an efficacy which corresponds to that of the untreated control, while an efficacy of 100% means that no disease is observed.

Another data set concerns Alternaria solani. Description: In vivo preventive test on Alternaria solani (tomato). The note with it: 500 ppm of active ingredient, evaluated 7 days after inoculation. Here is the method:
Solvent: 49 parts by weight of N,N-dimethylformamide Emulsifier: 1 part by weight of Alkylarylpolyglycolether To produce a suitable preparation of active compound, 1 part by weight of active compound is mixed with the stated amounts of solvent and emulsifier, and the concentrate is diluted with water to the desired concentration. To test for preventive activity, young plants are sprayed with the preparation of active compound at the stated rate of application. One day after this treatment, the plants are inoculated with an aqueous spore suspension of Alternaria solani. The plants remain for one day in an incubation cabinet at approximately 22° C. and a relative atmospheric humidity of 100%. Then the plants are placed in an incubation cabinet at approximately 20° C. and a relative atmospheric humidity of 96%. The test is evaluated 7 days after the inoculation. 0% means an efficacy which corresponds to that of the untreated control while an efficacy of 100% means that no disease is observed.

Data set [1] can be described thus: log P by HPLC on reversed-phase column (C 18), EEC Directive 79/831 Annex V.A8. In kind it is physicochemical. The note with it: HPLC on reversed-phase column (C 18); 40° C.; 0.1% aqueous formic acid and acetonitrile; linear gradient 10% to 90% acetonitrile. The method, boiled down: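 Reversed-phase C18 HPLC at 40° C with a linear 10% to 90% acetonitrile gradient against 0.1% aqueous formic acid. Log P is read from retention time by linear interpolation between successive unbranched alkan-2-ones (C3–C16) of known log P. UV spectra from 200 to 400 nm, taken at chromatographic peak maxima, give lambda-max.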

The subject of the next data set is Pyrenophora teres. Description: In vivo preventive test on Pyrenophora teres (barley). As to conditions: 500 ppm of active ingredient, evaluated 7-9 days after inoculation. The procedure, abridged: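 Young barley plants sprayed with compound in DMF/alkylaryl polyglycol ether emulsion; inoculated with P. teres spores one day later. 48 h at 22 °C, 100% humidity, then greenhouse ~20 °C, ~80% humidity; efficacy scored 7-9 days post-inoculation, 0% = untreated, 100% = no disease.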

Several values for one entry are separate records, joined by “and”; a condition that tells them apart may be missing. Equal values may be shown once.

As a reminder, the logP is the decadic logarithm of the partition coefficient of the neutral form, usually between octanol and water. A higher logP goes with a more lipophilic compound. For `COc1cc(OC)cc(C2CCCCN2C(=O)c2c(C)nn(C)c2F)c1` (stereo not drawn) [Example 68], the figures for the Efficacy with Sphaerotheca fuliginea, in the data set with Alternaria solani and in the data set with Pyrenophora teres were 83%, 80% and 95%, respectively. In addition, the logP in data set [1] amounted to 2.56.
For `Cn1nc(C(F)F)c(C(=O)N2CCCCC2c2ccc(Cl)cc2)c1F` (stereo not drawn) [Example 56] the same measures were 79%, 100%, 100% and 3.46.
For `Cc1ccccc1C1CCCCN1C(=O)c1c(C(F)F)nn(C)c1F` (stereo not drawn) [Example 6] the same measures were 95%, 100%, 100% and 3.21.
For `Cn1nc(C(F)F)c(C(=S)N2CCCCC2c2ccc(Cl)cc2)c1F` (stereo not drawn) [Example 57] the same measures were 70%, 100%, 100% and 4.16.
In the case of `CC(c1ccccc1)C1CCCCN1C(=S)c1c(C(F)F)nn(C)c1F` (stereo not drawn) [Example 139], the Efficacy is 95% with Sphaerotheca fuliginea, 95% in the data set on Alternaria solani and 100% in the data set with Pyrenophora teres. Besides, the logP in data set [1] was 4.14.
For `CC(c1ccccc1)C1CCCCN1C(=O)c1c(C(F)F)nn(C)c1F` (stereo not drawn) [Example 138], the Efficacy was found to be 98% in the data set on Sphaerotheca fuliginea, 100% with Alternaria solani and 100% in the data set with Pyrenophora teres. Further, the log partition coefficient (logP) in data set [1] is 3.39.
Consider `Cn1nc(C(F)F)c(C(=O)N2CCCCC2c2ccc3ccccc3c2)c1F` (stereo not drawn) [Example 122], for which the Efficacy came out at 94% in the data set on Sphaerotheca fuliginea, 100% in the data set with Alternaria solani and 100% in the data set on Pyrenophora teres. The compound further returned a logP in data set [1] of 3.69.
With `CC(c1ccccc1Cl)C1CCCCN1C(=O)c1c(C(F)F)nn(C)c1F` (stereo not drawn) [Example 163], the Efficacy in the data set on Sphaerotheca fuliginea turned out to be 98%; in the data set with Alternaria solani, 100%; with Pyrenophora teres, 100%. In data set [1], this compound yielded a lipophilicity (logP) of 3.72.
Turning to `Cn1nc(C(F)F)c(C(=O)N2CCCCC2c2ccccc2Br)c1F` (stereo not drawn) [Example 91], the figures for the Efficacy in the data set on Sphaerotheca fuliginea, in the data set with Alternaria solani and in the data set with Pyrenophora teres were 95%, 100% and 100%, respectively. In data set [1], this compound registered a logP of 3.39.
For the compound `Cc1ccc(C2CCCCN2C(=O)c2c(C(F)F)nn(C)c2F)cc1C` (stereo not drawn) [Example 9], the figures for the Efficacy in the data set on Sphaerotheca fuliginea, in the data set with Alternaria solani and in the data set on Pyrenophora teres were 93%, 95% and 100%, respectively. This compound also registered a log partition coefficient (logP) in data set [1] of 3.64.
Take `Cn1nc(C(F)F)c(C(=O)N2CCCCC2CCOc2ccc(C(F)(F)F)cn2)c1F` (stereo not drawn) [Example 196]: the values for the Efficacy in the data set on Sphaerotheca fuliginea, with Alternaria solani and with Pyrenophora teres were 70%, 100% and 100%, respectively. In data set [1], the logP is reported as 3.57.
As for `Cn1nc(C(F)F)c(C(=O)N2CCCCC2c2cccc(Cl)c2)c1F` (stereo not drawn) [Example 48], the Efficacy in the data set on Sphaerotheca fuliginea, with Alternaria solani and in the data set on Pyrenophora teres was 100% each time. The compound also gave a logP in data set [1] of 3.39.
Turning to `CCc1noc(C)c1C(=O)N1CCCCC1c1ccc(Br)s1` (stereo not drawn) [Example 126], the Efficacy in the data set on Sphaerotheca fuliginea amounted to 95%. The compound further gave a logP in data set [1] of 3.67.
Turning to `Cn1nc(C(F)F)c(C(=S)N2CCCCC2c2ccccc2Br)c1F` (stereo not drawn) [Example 92], the Efficacy with Sphaerotheca fuliginea was 100%; with Alternaria solani it was 95% and 100%; in the data set with Pyrenophora teres, 100%. Besides, in data set [1], the lipophilicity (logP) turned out to be 3.92.
As to `Cn1nc(C(F)F)c(C(=S)N2CCCCC2c2cccc(Br)c2)c1F` (stereo not drawn) [Example 98], the Efficacy with Sphaerotheca fuliginea, in the data set with Alternaria solani and in the data set on Pyrenophora teres was 100% throughout. In addition, the logP in data set [1] stood at 4.16.
With `Cn1nc(C(F)F)c(C(=O)N2CCCCC2Cc2ccc(F)cc2)c1F` (stereo not drawn) [Example 156], the results for the Efficacy in the data set on Sphaerotheca fuliginea, in the data set with Alternaria solani and with Pyrenophora teres were 75%, 100% and 100%, respectively. Moreover, the logP in data set [1] was found to be 3.11.
`Cc1ccccc1C1CCCCN1C(=S)c1c(C(F)F)nn(C)c1F` (stereo not drawn) [Example 7]: the Efficacy with Sphaerotheca fuliginea is on record as 100%; in the data set on Alternaria solani it was 95%; in the data set with Pyrenophora teres, 100%. The same compound displayed a logP in data set [1] of 3.81.
On to `Cn1nc(C(F)F)c(C(=O)N2CCCCC2c2cccc(Oc3ccccc3)c2)c1F` (stereo not drawn) [Example 115], for which the Efficacy in the data set on Sphaerotheca fuliginea worked out at 95%; in the data set on Alternaria solani, 100%; in the data set on Pyrenophora teres, 100%. This compound registered a logP in data set [1] of 3.99.
As for `Cn1nc(C(F)F)c(C(=O)N2CCCCC2c2ccccc2Cl)c1F` (stereo not drawn) [Example 41], the Efficacy in the data set on Sphaerotheca fuliginea, in the data set on Alternaria solani and with Pyrenophora teres was 100% each time. In addition, the logP in data set [1] worked out at 3.31.
As to `CC(c1ccccc1Cl)C1CCCCN1C(=S)c1c(C(F)F)nn(C)c1F` (stereo not drawn) [Example 166], the Efficacy with Sphaerotheca fuliginea, with Alternaria solani and with Pyrenophora teres was 100% in each case. In data set [1], the logP is listed as 4.53.
Consider `Cn1nc(C(F)F)c(C(=O)N2CCCCC2c2cccc(Br)c2)c1F` (stereo not drawn) [Example 97], for which the Efficacy was 96% with Sphaerotheca fuliginea, 100% in the data set on Alternaria solani and 100% in the data set with Pyrenophora teres. Also, in data set [1], the logP is on record as 3.51.
As to `Cn1nc(C(F)F)c(C(=S)N2CCCCC2c2ccccc2Cl)c1F` (stereo not drawn) [Example 42], the Efficacy in the data set on Sphaerotheca fuliginea, in the data set with Alternaria solani and in the data set on Pyrenophora teres was 100% each time. The same compound displayed a logP in data set [1] of 4.00.
Take `Cn1nc(C(F)F)c(C(=O)N2CCCCC2c2ccc(Cl)cc2Cl)c1F` (stereo not drawn) [Example 81]: the Efficacy with Sphaerotheca fuliginea worked out at 94%; in the data set with Alternaria solani it was 100%; with Pyrenophora teres, 100%. The same compound showed a logP in data set [1] of 3.87.
As to `Cn1nc(C(F)F)c(C(=S)N2CCCCC2c2ccc3ccccc3c2)c1F` (stereo not drawn) [Example 123], the Efficacy in the data set on Sphaerotheca fuliginea turned out to be 88%; in the data set with Alternaria solani, 90%; in the data set on Pyrenophora teres, 100%. The same compound returned a logP in data set [1] of 4.36.
For `CCc1nn(C)c(F)c1C(=O)N1CCCCC1c1cc(Cl)ccc1Cl` (stereo not drawn) [Example 82] the same measures were 79%, 95%, 90% and 3.67.
For `Cn1nc(C(F)F)c(C(=S)N2CCCCC2c2cccc(Cl)c2)c1F` (stereo not drawn) [Example 49], in that order: 98%, 100%, 100% and 4.06.
